The EC50 is the concentration at which the effect is half-maximal. For orientation: Emax means the maximal effect, on the per cent scale that the assay sets.

Common to all, as to assay type: cell-based
The target of one test is T1, human CRF2α receptor (Homo sapiens, UniProt Q13324).
T1 construct: expressed in transfected cells; host or cells: TeloHEAC
T1 sequence (Q13324 1-411): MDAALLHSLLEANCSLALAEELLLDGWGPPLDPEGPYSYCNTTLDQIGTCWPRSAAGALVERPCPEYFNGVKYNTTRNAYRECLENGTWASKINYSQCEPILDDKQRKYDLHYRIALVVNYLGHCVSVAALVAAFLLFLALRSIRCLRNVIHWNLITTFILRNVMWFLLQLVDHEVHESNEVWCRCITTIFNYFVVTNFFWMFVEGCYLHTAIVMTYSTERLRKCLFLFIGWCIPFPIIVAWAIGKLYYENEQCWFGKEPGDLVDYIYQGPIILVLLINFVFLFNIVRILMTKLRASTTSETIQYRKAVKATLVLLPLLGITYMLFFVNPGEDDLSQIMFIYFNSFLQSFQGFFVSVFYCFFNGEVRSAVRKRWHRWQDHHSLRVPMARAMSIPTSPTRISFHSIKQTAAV
The test can be described thus: cAMP agonism at human CRF2 α receptor in TeloHEAC cells (Example 7). Particulars: cAMP HTRF, TeloHEAC cells stably expressing human CRF2 α. The gist of the method:
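Steps: thaw and wash cells; suspend in 1×HBSS, 20 mM HEPES, 0 or 0.1% HSA, 2 mM IBMX; add compound, 30 min RT; lyse with HTRF reagents, 1 h; read 665/620 nm. EC50 calculated, E% versus 1000 nM UCN2.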
In general terms: Time-resolved FRET reads energy transfer from a long-lived donor to a nearby acceptor.

In the next test the target is T2, CRF1R receptor (Homo sapiens, UniProt P34998).
T2 construct: host or cells: CHO-K1 clone 2
T2 sequence (P34998 24-415): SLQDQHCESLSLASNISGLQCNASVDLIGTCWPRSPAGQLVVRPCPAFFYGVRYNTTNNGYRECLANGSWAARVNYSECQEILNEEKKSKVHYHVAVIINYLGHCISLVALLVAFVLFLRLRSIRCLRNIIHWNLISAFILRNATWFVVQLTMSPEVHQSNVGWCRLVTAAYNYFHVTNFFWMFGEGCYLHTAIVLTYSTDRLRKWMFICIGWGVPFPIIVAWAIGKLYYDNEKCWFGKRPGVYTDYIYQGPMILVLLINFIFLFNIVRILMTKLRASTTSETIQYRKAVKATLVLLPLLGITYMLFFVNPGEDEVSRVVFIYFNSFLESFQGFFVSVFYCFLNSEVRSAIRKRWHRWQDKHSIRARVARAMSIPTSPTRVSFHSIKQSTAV
The test can be described thus: cAMP activity at anti-target CRF1R, CRF1R-overexpression CHO cell line (Example 9). Particulars: CRF1R-overexpression CHO cell line; for EC50: 0% HSA; for Emax: read-out: Emax (%). The gist of the method:
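cAMP accumulation was read by HTRF after 30 min at room temperature of compound treatment. Cells were cryopreserved CHO cells overexpressing CRF1R, plated at 2000/well in IBMX (2 mM)-containing HBSS/HEPES buffer with 0 or 0.1% HSA. Activity was normalized to 1000 nM UCN2 as 100%.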

The subject of another test is rat CRF2R α receptor. The test can be described thus: cAMP agonism at rat CRF2R α receptor in A7R5 rat aortic smooth muscle cells (Example 8). Particulars: cAMP HTRF, A7R5 rat aortic smooth muscle cell line, 0% HSA. A digest of the protocol:
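Thawed cryopreserved A7R5 cells in HBSS/20 mM HEPES (0 or 0.1% HSA) with 2 mM IBMX, 2000 cells/well, were exposed to compound for 30 min at room temperature. cAMP was read by HTRF (665/620 nm ratio) after 1 h with lysis reagents. Activity was normalised to 1000 nM urocortin 2 as 100%, and EC50 was taken as the concentration giving 50% of maximal activation.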

[1] abbreviates: 0% HSA, read-out: EC50 [nM], 0% HSA.
The mark [2] stands for this setting: 0.1% HSA, read-out: EC50 [nM], 0.1% HSA.

SMILES strings stand for the structures. Where two headings read alike, the source gives them in different places. Starred links: 1 amine or outer side, 2 acyl side, 3 side chain; linkers in the order of their positions; H or OH if unused. Non-standard residues stand in square brackets, D forms with d. Residues, ends and D or L forms follow the SMILES beside them. Groups on a side chain read outwards from the residue. *: point of attachment. C18 diacid = O=C(O)CCCCCCCCCCCCCCCCC(=O)*; γGlu = O=C(O)[C@H](CCC(=O)[*:2])N[*:1]; AEEA = NCCOCCOCC(=O)O; Aib = CC(C)(N)C(=O)O A value given as a limit tells only on which side of the number the result lay.

Turning to `CC[C@H](C)[C@H](N)C(=O)N[C@H](C(=O)N[C@@H](CC(C)C)C(=O)N[C@@H](CO)C(=O)N[C@@H](CC(C)C)C(=O)N[C@@H](CC(=O)O)C(=O)N[C@H](C(=O)N1CCC[C@H]1C(=O)N[C@H](C(=O)N[C@@H](CCCCN)C(=O)N[C@@H](CC(C)C)C(=O)N[C@@H](CCCCNC(=O)COCCOCCNC(=O)COCCOCCNC(=O)CC[C@H](NC(=O)CCCCCCCCCCCCCCCCC(=O)O)C(=O)O)C(=O)N[C@@H](CCC(N)=O)C(=O)N[C@H](C(=O)N[C@@H](CC(C)C)C(=O)N[C@@H](CC(C)C)C(=O)N[C@@H](CCCCN)C(=O)N[C@@H](CCC(N)=O)C(=O)N[C@@H](CCC(=O)O)C(=O)N[C@@H](CCCNC(=N)N)C(=O)N[C@@H](CCC(N)=O)C(=O)N[C@@H](CCCCN)C(=O)N[C@@H](CCCCN)C(=O)N[C@@H](CCC(N)=O)C(=O)N[C@@H](CCCNC(=N)N)C(=O)N[C@@H](CCC(=O)O)C(=O)N[C@@H](CCC(N)=O)C(=O)N[C@@H](C)C(=O)N[C@@H](CCCCN)C(=O)N[C@H](C(=O)N[C@@H](CC(N)=O)C(=O)N[C@@H](CCCCN)C(=O)N[C@@H](CCC(N)=O)C(=O)N[C@H](C(=O)N[C@@H](CC(C)C)C(=O)N[C@@H](C)C(=O)N[C@@H](CCC(N)=O)C(=O)N[C@H](C(N)=O)C(C)C)[C@@H](C)CC)[C@@H](C)O)[C@@H](C)CC)[C@@H](C)CC)C(C)C)C(C)C` [compound 86] (H-IVLSLDVPIKLK([AEEA-AEEA-γGlu-C18 diacid])QILLKQERQKKQREQAKTNKQILAQV-NH2; N-terminus assumed), the EC50 was 0.11 nM on human CRF2α receptor (setting [1]), 5.7 nM at human CRF2α receptor (setting [2]), over 1000 nM on CRF1R receptor and 0.69 nM in the test with rat CRF2R α receptor. Besides, the Emax at CRF1R receptor is 15.9%.
On the same counts, the results for `CC[C@H](C)[C@H](N)C(=O)N[C@H](C(=O)N[C@@H](CC(C)C)C(=O)N[C@@H](CO)C(=O)N[C@@H](CC(C)C)C(=O)N[C@@H](CC(=O)O)C(=O)N[C@H](C(=O)N1CCC[C@H]1C(=O)N[C@H](C(=O)N[C@@H](CCCCN)C(=O)N[C@@H](CC(C)C)C(=O)N[C@@H](CCCCNC(=O)COCCOCCNC(=O)COCCOCCNC(=O)CC[C@H](NC(=O)CCCCCCCCCCCCCCCCC(=O)O)C(=O)O)C(=O)N[C@@H](CCC(N)=O)C(=O)N[C@H](C(=O)N[C@@H](CC(C)C)C(=O)N[C@@H](CC(C)C)C(=O)N[C@@H](CCCCN)C(=O)N[C@@H](CCC(N)=O)C(=O)N[C@@H](CCC(=O)O)C(=O)N[C@@H](CCCNC(=N)N)C(=O)N[C@@H](CCC(N)=O)C(=O)N[C@@H](CCCCN)C(=O)N[C@@H](CCCCN)C(=O)N[C@@H](CCC(N)=O)C(=O)N[C@@H](CCCNC(=N)N)C(=O)N[C@@H](CCC(=O)O)C(=O)N[C@@H](CCCCN)C(=O)N[C@@H](C)C(=O)N[C@@H](CCCCN)C(=O)N[C@H](C(=O)N[C@@H](CC(N)=O)C(=O)N[C@@H](CCCCN)C(=O)N[C@@H](CCC(N)=O)C(=O)N[C@H](C(=O)N[C@@H](CC(C)C)C(=O)N[C@@H](C)C(=O)N[C@@H](CCC(N)=O)C(=O)N[C@H](C(N)=O)C(C)C)[C@@H](C)CC)[C@@H](C)O)[C@@H](C)CC)[C@@H](C)CC)C(C)C)C(C)C` [compound 87] (H-IVLSLDVPIKLK([AEEA-AEEA-γGlu-C18 diacid])QILLKQERQKKQREKAKTNKQILAQV-NH2; N-terminus assumed) are 0.23 nM, 16.2 nM, over 1000 nM, 1.49 nM and -0.2%.
On the same counts, the results for `CC[C@H](C)[C@H](N)C(=O)N[C@H](C(=O)N[C@@H](CC(C)C)C(=O)N[C@@H](CO)C(=O)N[C@@H](CC(C)C)C(=O)N[C@@H](CC(=O)O)C(=O)N[C@H](C(=O)N1CCC[C@H]1C(=O)N[C@H](C(=O)N[C@@H](CCCCN)C(=O)N[C@@H](CC(C)C)C(=O)N[C@@H](CCCCNC(=O)COCCOCCNC(=O)COCCOCCNC(=O)CC[C@H](NC(=O)CCCCCCCCCCCCCCCCC(=O)O)C(=O)O)C(=O)N[C@@H](CCCCN)C(=O)N[C@H](C(=O)N[C@@H](CC(C)C)C(=O)N[C@@H](CC(C)C)C(=O)N[C@@H](CCCCN)C(=O)N[C@@H](CCC(N)=O)C(=O)N[C@@H](CCC(=O)O)C(=O)N[C@@H](CCCNC(=N)N)C(=O)N[C@@H](CCC(N)=O)C(=O)N[C@@H](CCCCN)C(=O)N[C@@H](CCCCN)C(=O)NC(C)(C)C(=O)N[C@@H](CCCNC(=N)N)C(=O)N[C@@H](CCC(=O)O)C(=O)N[C@@H](CCC(N)=O)C(=O)N[C@@H](C)C(=O)N[C@@H](CCC(=O)O)C(=O)N[C@H](C(=O)N[C@@H](CC(N)=O)C(=O)NC(C)(C)C(=O)N[C@@H](CCC(N)=O)C(=O)N[C@H](C(=O)N[C@@H](CC(C)C)C(=O)N[C@@H](C)C(=O)N[C@@H](CCC(N)=O)C(=O)N[C@H](C(N)=O)C(C)C)[C@@H](C)CC)[C@@H](C)O)[C@@H](C)CC)[C@@H](C)CC)C(C)C)C(C)C` [compound 100] (H-IVLSLDVPIKLK([AEEA-AEEA-γGlu-C18 diacid])KILLKQERQKK[Aib]REQAETN[Aib]QILAQV-NH2; N-terminus assumed) are 0.51 nM, 20.5 nM, over 1000 nM, 7.52 nM and 5.06%.
The matching figures for `CC[C@H](C)[C@H](N)C(=O)N[C@H](C(=O)N[C@@H](CC(C)C)C(=O)N[C@@H](CO)C(=O)N[C@@H](CC(C)C)C(=O)N[C@@H](CC(=O)O)C(=O)N[C@H](C(=O)N1CCC[C@H]1C(=O)N[C@H](C(=O)N[C@@H](CCCCN)C(=O)N[C@@H](CC(C)C)C(=O)N[C@@H](CCCCNC(=O)COCCOCCNC(=O)COCCOCCNC(=O)CC[C@H](NC(=O)CCCCCCCCCCCCCCCCC(=O)O)C(=O)O)C(=O)N[C@@H](CCCCN)C(=O)N[C@H](C(=O)N[C@@H](CC(C)C)C(=O)N[C@@H](CC(C)C)C(=O)N[C@@H](CCCCN)C(=O)N[C@@H](CCC(N)=O)C(=O)N[C@@H](CCC(=O)O)C(=O)N[C@@H](CCCNC(=N)N)C(=O)N[C@@H](CCC(N)=O)C(=O)N[C@@H](CCCCN)C(=O)N[C@@H](CCCCN)C(=O)NC(C)(C)C(=O)N[C@@H](CCCNC(=N)N)C(=O)N[C@@H](CCC(=O)O)C(=O)N[C@@H](CCC(N)=O)C(=O)N[C@@H](C)C(=O)N[C@@H](CCC(=O)O)C(=O)N[C@H](C(=O)N[C@@H](CC(N)=O)C(=O)N[C@@H](CCCCN)C(=O)N[C@@H](CCC(N)=O)C(=O)N[C@H](C(=O)N[C@@H](CC(C)C)C(=O)N[C@@H](CCC(=O)O)C(=O)N[C@@H](CCCNC(=N)N)C(=O)N[C@H](C(N)=O)C(C)C)[C@@H](C)CC)[C@@H](C)O)[C@@H](C)CC)[C@@H](C)CC)C(C)C)C(C)C` [compound 101] (H-IVLSLDVPIKLK([AEEA-AEEA-γGlu-C18 diacid])KILLKQERQKK[Aib]REQAETNKQILERV-NH2; N-terminus assumed): 0.11 nM, 4.28 nM, over 1000 nM, 1.02 nM and -0.34%.

These data come from patent US12679878B2, “CRF2 receptor agonists and their use in therapy” (SANOFI, priority 2020, dated 2026).
